In data set [1] the target is T1, human α1β2γ2L GABAA receptors expressed in HEK-293 cells (Homo sapiens, UniProt P14867+P47870).
T1 construct: The coding regions of the human GABAA receptor subunits were then amplified by PCR; expressed in transfected cells; host or cells: HEK-293 (permanently transfected, pcDNA3.1 vectors, CMV promoter)
Kind of data set: Whole-cell patch clamp of GABA/THDOC-evoked currents, synaptic protocol (Dynaflow). The class given is cell-based. The conditions noted are these: for Reduction of AUC of THDOC-induced GABA response: n = 8, p ≤ 0.05. The source says:
Wild-type HEK-293 cells (passage 4, originating from Pasteur Institute, Paris, France) were permanently transfected with vectors including the human CMV promoter for the constitutive expression of the human α5, β3, and γ2L GABAA receptor subunits (α5β3γ2L) or the human α1, β2, and γ2L GABAA receptor subunits (α1β2γ2L). The production of the plasmids used in the sub-cloning of the different subunits is published in Rahman et al..
The electrophysiological recordings from HEK-293 cells were performed with the whole-cell voltage clamp technique, at room temperature (21–23 °C). After compensation for liquid junction potential, a steady holding potential of −17 mV was used in all experiments. Patch pipettes were pulled from borosilicate glass (Bergman Labora AB, Danderyd, Sweden) and polished to a resistance of 2–5 MΩ when filled with intracellular solution and immersed in a bath (extracellular) solution (for solutions, see below). The pipette tips were filled by immersion in standard intracellular solution and subsequent back-filling with intracellular solution. The recordings were made using an Axopatch 200B amplifier and a Digidata 1322A (Axon Instruments, Foster City, CA, USA) controlled via a Pentium processor-based personal computer. Data were acquired using the pCLAMP software sampled at 10 kHz, filtered at 2–10 kHz, and analyzed with Clampfit (versions 9.0, both from Axon Instruments, Foster City, CA, USA). A series resistance between the pipette and cell membrane not higher than 20 MΩ was accepted. No series resistance compensation was used. The stability of series resistance was monitored repeatedly from the time course of capacitative transients during the experiments. The measured liquid junction potential between extracellular and intracellular solutions was subtracted from all data presented, as previously described. All experiments were performed at room temperature (21–23 °C).
In all electrophysiological experiments, tetrahydro-deoxycorticosterone (THDOC) was used as a positive GABAA receptor steroid modulator (PAM) to mimic the effect of AP on central GABAA channels. […] THDOC (Sigma Chemical Co., St. Louis, MO, USA) and GR3027 (3α-ethynyl, 3β-hydroxyl, 5α-androstan-17-oxime, golexanolone, Umecrine Cognition AB, Stockholm, Sweden) were dissolved in dimethyl sulfoxide (DMSO) using ultrasound, for the preparation of solutions containing a final DMSO concentration of 0.1%. GR3027 was discovered within a series of molecules developed and patented by T. Bäckström and G. Ragagnin, (patent WO 2008/063128). All solutions were complemented with DMSO to achieve the same final concentration as in the steroid-containing test solution. GABA (Sigma Chemical Co., St. Louis, MO, USA) was first prepared as a stock solution (dissolved in EC with ultrasonic treatment) to the desired concentrations, with the corresponding final concentrations of test solutions (30 µM and 0.3 µM; see protocols below). GABA was added to the experimental solution without a change in osmolarity.
The experimental protocols were designed to mimic the physiological conditions of the tonic (extra-synaptic) and phasic (synaptic) activation of GABAA receptors observed in central neurons, depending on the subunit compositions, respectively. GABA-evoked currents in HEK-293 cells expressing extra-synaptic (α5β3γ2L) or synaptic (α1β2γ2L) types of GABAA receptors were studied using the conventional whole-cell patch clamp technique. To mimic the physiological GABA exposure, the HEK-293 cells expressing α1β2γ2L GABAA receptors were exposed to short applications (40 ms) of 30 µM GABA, whereas HEK-293 cells expressing α5β3γ2L GABAA receptors were exposed to prolonged applications (6 s) of 0.3 µM GABA, either in the absence or presence of THDOC and/or GR3027.
(In general: Patch clamp records ionic current or voltage across a cell membrane.)

Data set [2] in a line: Pharmacokinetic analysis of GR3027 in plasma after i.v. and p.o. administration. The class given is in vivo, rat. The conditions noted are these: for AUC: male Sprague-Dawley rats, 0-24 h; for Cmax / Tmax / half-life: rat plasma; for half-life: read-out: t½; for k el: in vivo. The protocol: Ten male Sprague-Dawley rats were used to assess PK with GR3027 given orally and intravenously, respectively. Animals were kept at room temperature with artificial light under a 12/12 h light/dark schedule, and with food and water ad libitum. Animals were given 2 mg/kg i.v. in 10% 2-hydroxypropyl-beta-cyclodextrin or 10 mg/kg orally. Approximately 50 µL blood samples were taken at 15 min, 30 min, 1 h, 2 h, 4 h, 8 h, 12 h, and 24 h after oral dosing, and 5 min, 15 min, 30 min, 1 h, 2 h, 4 h, 8 h, 12 h, and 24 h after intravenous dosing, and plasma was frozen. The analysis method has been described earlier and is here briefly described. All the samples were analyzed in triplicate by Admescope Ltd., Oulu, Finland, using an LC/MS/MS method developed for the purpose, using a Waters ACQUITY UPLC_Waters XEVO-TQS triple-quadrupole mass spectrometer.
Blood/plasma samples were obtained at several time points after the i.v. and p.o. administration of GR3027 to rats. The maximum plasma concentration (Cmax) and the time to Cmax (Tmax) were derived directly from the plasma concentration data. The results are shown in Table 4 as the area under the concentration–time curve (AUC, 0–24 h), elimination half-life in plasma (t1/2), elimination rate constant (Ke), total body clearance (CL), and mean residence time (MRT), i.e., how long GR3027 remained in the body. The tentative oral bioavailability (F) was calculated by dividing the dose-normalized AUC after p.o. administration by the dose-normalized AUC after i.v. administration, i.e., F = [(AUC(p.o.)/Dose(p.o.))///(AUC(i.v)/Dose (i.v.))], and reported as percentages (%).

Setting [3] is: male, Sprague-Dawley, iv, 2 mg/kg i.v., mean.
Where [4] appears, read: male, Sprague-Dawley, po, 10 mg/kg p.o., mean.

Like-named read-outs stand apart in the source and are kept apart here.

T1 sequence (P14867 28-456): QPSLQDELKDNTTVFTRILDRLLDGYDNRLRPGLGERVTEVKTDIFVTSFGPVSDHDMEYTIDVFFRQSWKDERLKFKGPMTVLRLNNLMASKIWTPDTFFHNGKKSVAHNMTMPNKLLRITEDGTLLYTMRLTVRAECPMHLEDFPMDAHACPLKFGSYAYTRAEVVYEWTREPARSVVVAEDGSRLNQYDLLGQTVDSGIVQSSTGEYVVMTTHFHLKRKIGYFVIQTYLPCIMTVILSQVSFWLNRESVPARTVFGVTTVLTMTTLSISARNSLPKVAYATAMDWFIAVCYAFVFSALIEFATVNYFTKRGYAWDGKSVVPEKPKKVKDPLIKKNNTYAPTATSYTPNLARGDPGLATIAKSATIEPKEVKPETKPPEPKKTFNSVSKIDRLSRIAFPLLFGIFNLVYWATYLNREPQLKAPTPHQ
T1 sequence (P47870 25-512 limits assumed): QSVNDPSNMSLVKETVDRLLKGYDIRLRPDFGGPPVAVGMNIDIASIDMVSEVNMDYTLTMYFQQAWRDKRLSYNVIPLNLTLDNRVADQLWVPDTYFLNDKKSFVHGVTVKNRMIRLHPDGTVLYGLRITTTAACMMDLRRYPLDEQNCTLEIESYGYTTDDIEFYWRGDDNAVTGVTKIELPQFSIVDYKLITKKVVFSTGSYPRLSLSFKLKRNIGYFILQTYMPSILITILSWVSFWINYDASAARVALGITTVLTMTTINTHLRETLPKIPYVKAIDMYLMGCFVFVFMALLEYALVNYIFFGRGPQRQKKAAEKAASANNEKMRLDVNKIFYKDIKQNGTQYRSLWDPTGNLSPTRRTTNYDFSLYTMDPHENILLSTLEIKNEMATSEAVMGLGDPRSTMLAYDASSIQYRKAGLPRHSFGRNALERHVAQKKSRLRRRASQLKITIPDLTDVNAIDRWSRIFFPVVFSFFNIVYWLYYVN
T1 sequence (P18507 40-475 partner): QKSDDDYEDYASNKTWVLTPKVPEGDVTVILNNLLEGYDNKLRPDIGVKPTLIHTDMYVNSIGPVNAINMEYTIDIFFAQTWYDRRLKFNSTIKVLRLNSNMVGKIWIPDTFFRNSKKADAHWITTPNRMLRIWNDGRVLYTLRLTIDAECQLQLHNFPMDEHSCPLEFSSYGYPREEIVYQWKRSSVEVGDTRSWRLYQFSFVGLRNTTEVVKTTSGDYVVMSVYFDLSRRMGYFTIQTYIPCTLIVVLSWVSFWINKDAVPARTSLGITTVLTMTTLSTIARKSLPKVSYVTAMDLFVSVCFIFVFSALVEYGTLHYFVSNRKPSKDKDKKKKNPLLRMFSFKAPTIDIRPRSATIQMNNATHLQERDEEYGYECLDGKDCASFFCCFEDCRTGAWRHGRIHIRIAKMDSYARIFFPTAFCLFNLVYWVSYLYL

In the case of `C#C[C@]1(O)CC[C@@]2(C)[C@@H](CC[C@@H]3[C@@H]2CC[C@]2(C)/C(=N/O)CC[C@@H]32)C1` [GR3027, 3α-ethynyl-3β-hydroxyl-5α-androstan-17-oxime], the “Reduction of AUC of THDOC-induced GABA response” value was −11.6 ± 3.1 in data set [1] (1 µM GR3027 + 200 nM THDOC + 30 µM GABA (40 ms)) and −22.9 ± 2.8 in data set [1] (3 µM GR3027 + 200 nM THDOC + 30 µM GABA (40 ms)). Besides, the “Change of AUC of GABA-mediated current, GR3027 alone” value in data set [1] (1 µM GR3027 + 30 µM GABA, no THDOC, NS, n = 21) was “–3.1 ± 1.7%”. In data set [1] (3 µM GR3027, 200 nM THDOC, absence of GABA, n = 7, p ≤ 0.05), the “Decrease in THDOC-mediated baseline holding current shift” value is −38.1 ± 7.6%. In addition, the “Effect on baseline holding current or 30 µM GABA-mediated currents, GR3027 alone” value in data set [1] (GR3027 alone, no THDOC) is recorded as “No difference”. The “Effect on THDOC-induced GABA currents at lower concentrations” value in data set [1] (GR3027 below 1 µM (tested from 0.1 µM), 200 nM THDOC + 30 µM GABA) was “no reduction”. For the same compound, the AUC in data set [2] (2 mg/kg i.v., plasma, mean) came to 2205586 min ∗ ng/mL; in data set [2] (10 mg/kg p.o., plasma, mean), 113568 min ∗ ng/mL. For the same compound, the Cmax (in general, the peak of the concentration-time curve) stood at 74.5 µg/mL in data set [2] (setting [3]) and 0.504 µg/mL in data set [2] (setting [4]). Moreover, the Tmax (usually the time at which the peak concentration occurs) was 0.0833 h in data set [2] (setting [3]) and 0.567 h in data set [2] (setting [4]). The half-life is 11.3 h in data set [2] (setting [3]) and 5.17 h in data set [2] (setting [4]). Besides, the MRT (in general, a mean duration of stay, worked out from the concentration-time curve) in data set [2] (male, Sprague-Dawley, plasma, iv, 2 mg/kg i.v., rat, mean) is 0.277 h; in data set [2] (male, Sprague-Dawley, plasma, po, 10 mg/kg p.o., rat, mean), 4.73 h. In addition, the clearance in data set [2] (male, Sprague-Dawley, plasma, iv, 2 mg/kg i.v., rat, mean, read-out: Cl (total body clearance)) turned out to be 0.0654 L/h/kg. The bioavailability – broadly, the share of a dose that reaches the circulation, judged against a reference dose that is usually intravenous – in data set [2] (male, Sprague-Dawley, plasma, oral, 10 mg/kg p.o. vs 2 mg/kg i.v., dose-normalized AUC, rat, read-out: F (tentative oral bioavailability)) is 1%. For the same compound, the k el in data set [2] (male, Sprague-Dawley, rat, iv, 2 mg/kg) is 2e-05 s⁻¹; in data set [2] (male, Sprague-Dawley, rat, po, 10 mg/kg), 4.17e-05 s⁻¹.
